Source: patent US9895328B2, “Calcium formate as a supplement to prevent neural tube defects” (BOARD OF REGENTS, THE UNIVERSITY OF TEXAS SYSTEM, priority 2013, dated 2018)
Like-named read-outs stand apart in the source and are kept apart here.

What was measured:
Mthfd1l^z/z embryos [1] = conditions: for Crown-rump length: E15.5
Source text: Mice. All protocols used within this study were approved by the Institutional Animal Care and Use Committee of The University of Texas at Austin and conform to the National Institutes of Health Guide for the Care and Use of Laboratory Animals. All mice were maintained on a C57Bl/6 genetic background. Mice harboring a floxed conditional knockout cassette between exons 4 and 6 of Mthfd1l were obtained from the Wellcome Trust Sanger Institute (EUCOMM ID 37226). Mice carrying the floxed Mthfd1l allele were mated to mice expressing Cre recombinase under control of the E2a promoter (E2a-Cre) (Lakso M, et al. (1996) Proc. Natl. Acad. Sci. U.S.A 93:5860-5865) to generate heterozygous Mthfd1l^z/+ embryos lacking exon 5 and the neomycin resistance cassette (FIG. 2A). All mice were given ad libitum access to water and standard mouse chow (LabDiet 5K67).
Maternal Supplementation with Calcium Formate. Mthfd1l^z/+ matings were set up in a cage equipped with a water bottle containing 0.0096M, 0.019M, 0.056M or 0.096M calcium formate. The females had access to the supplemented water at least one day before observation of the plug. These concentrations were calculated to deliver 250, 500, 1500 or 2500 mg calcium formate/kg/day, respectively, based on an average water intake of 5 mL per day for a 25 g C57BL/6 mouse (Green EL ed (1966) Biology of the Laboratory Mouse (Dover Publications, Inc., New York), 2nd Ed, p 706). The effect of formate supplementation was analyzed by a two-tailed T-test for crown-rump length
Pregnant dams were administered calculated doses of 250-2500 mg/kg/day.

Mthfd1l^z/z embryos [2] = test: Maternal supplementation with sodium formate, Mthfd1l^z/+ matings; type: in vivo, mouse
Procedure: Maternal Supplementation with Sodium Formate.
Because deletion of Mthfd1l is expected to result in loss of mitochondrial formate production, experiments were conducted to determine if maternal formate supplementation would improve development of Mthfd1l^z/z embryos. Pregnant dams were given ad libitum access to water containing sodium formate to achieve a calculated dose of 5000 or 7500 mg sodium formate/kg/day; controls were given water without formate. […] When dams were supplemented with 5000 mg/kg/day sodium formate, 4 Mthfd1l^+/+, 14 Mthfd1l^z/+, and 8 Mthfd1l^z/z embryos were obtained from 3 litters between E15.5-18.5. […] Next, the morphology of E10.5-E15.5 embryos from dams supplemented with 7500 mg/kg/day sodium formate was examined, obtaining 10 Mthfd1l^+/+ embryos, 31 Mthfd1l^z/+ embryos and 14 Mthfd1l^z/z embryos from 6 litters, again conforming to the expected Mendelian ratio (p=0.48). […] Importantly, 6 of the 14 Mthfd1l^z/z embryos were dissected from dams at E13.5 or E15.5, whereas no surviving Mthfd1l^z/z embryos were observed after E12.5 from unsupplemented dams. While supplemented versus non-supplemented embryos were not compared after E12.5 due to lethality of the unsupplemented embryos, formate supplementation partially rescued the growth defect in Mthfd1l^z/z embryos (FIGS. 5A, 5B). […] Supplementation had no significant effect on crown-rump length of wild-type embryos (5.9±0.2 mm).

Folr1^−/− embryos = conditions: maternal supplementation, dose dependent ("tunable"); cited from earlier work
[3] = 250 mg/kg, of 6 Mthfd1l^z/z embryos
[4] = 250 mg/kg, of 6 Mthfd1l^z/z embryos (Table 2)
[5] = 250 mg/kg, of 6 Mthfd1l^z/z embryos (Table 3)
[6] = 500 mg/kg, of 11 Mthfd1l^z/z embryos
[7] = 500 mg/kg, of 11 Mthfd1l^z/z embryos (Table 2)
[8] = 500 mg/kg, of 11 Mthfd1l^z/z embryos (Table 3)
[9] = 1500 mg/kg, Mthfd1l^z/z embryos
[10] = 1500 mg/kg, of 13 Mthfd1l^z/z embryos
[11] = 1500 mg/kg, of 13 Mthfd1l^z/z embryos (Table 2)
[12] = 1500 mg/kg, of 13 Mthfd1l^z/z embryos (Table 3)
[13] = 2500 mg/kg, Mthfd1l^z/z embryos
[14] = 2500 mg/kg, of 15 Mthfd1l^z/z embryos
[15] = 2500 mg/kg, of 15 Mthfd1l^z/z embryos (Table 2)
[16] = 2500 mg/kg, of 15 Mthfd1l^z/z embryos (Table 3)
[17] = 3500 mg/kg, Mthfd1l^z/z embryos
[18] = 3500 mg/kg, of 10 Mthfd1l^z/z embryos
[19] = 3500 mg/kg, of 10 Mthfd1l^z/z embryos (Table 2)
[20] = 3500 mg/kg, of 10 Mthfd1l^z/z embryos (Table 3)
[21] = dams 5000 mg/kg/day sodium formate in water, 3 litters, E15.5-18.5, distribution vs Mendelian p=0.50
[22] = dams 7500 mg/kg/day sodium formate, 6 litters, E10.5-E15.5, vs Mendelian p=0.48
[23] = embryos lacking Mthfd1l, maternal supplementation

Structure (SMILES): O=C[O-].O=C[O-].[Ca+2] [calcium formate]
- NTD, phenotype as a percentage (Mthfd1l^z/z embryos [1]; 250 mg/kg, Mthfd1l^z/z embryos): 0.1667 percentage
- no defect observed, phenotype as a percentage (Mthfd1l^z/z embryos [1]; 250 mg/kg, Mthfd1l^z/z embryos): 0 percentage
- orofacial defect and NTD, phenotype as a percentage (Mthfd1l^z/z embryos [1]; 250 mg/kg, Mthfd1l^z/z embryos): 0.1667 percentage
- orofacial defect, phenotype as a percentage (Mthfd1l^z/z embryos [1]; 250 mg/kg, Mthfd1l^z/z embryos): 0.6667 percentage
- no defect observed (number of embryos) (Mthfd1l^z/z embryos [1]; [3]): 0
- orofacial defect and NTD (number of embryos) (Mthfd1l^z/z embryos [1]; [3]): 1
- number with NTD (Mthfd1l^z/z embryos [1]; [4]): 2
- number with facial defect (Mthfd1l^z/z embryos [1]; [4]): 4
- NTD (number of embryos) (Mthfd1l^z/z embryos [1]; [5]): 1
- orofacial defect (number of embryos) (Mthfd1l^z/z embryos [1]; [5]): 4
- NTD, phenotype as a percentage (Mthfd1l^z/z embryos [1]; 500 mg/kg, Mthfd1l^z/z embryos): 0 percentage
- no defect observed, phenotype as a percentage (Mthfd1l^z/z embryos [1]; 500 mg/kg, Mthfd1l^z/z embryos): 0.2727 percentage
- orofacial defect and NTD, phenotype as a percentage (Mthfd1l^z/z embryos [1]; 500 mg/kg, Mthfd1l^z/z embryos): 0 percentage
- orofacial defect, phenotype as a percentage (Mthfd1l^z/z embryos [1]; 500 mg/kg, Mthfd1l^z/z embryos): 0.7273 percentage
- no defect observed (number of embryos) (Mthfd1l^z/z embryos [1]; [6]): 3
- orofacial defect and NTD (number of embryos) (Mthfd1l^z/z embryos [1]; [6]): 0
- number with NTD (Mthfd1l^z/z embryos [1]; [7]): 0
- number with facial defect (Mthfd1l^z/z embryos [1]; [7]): 8
- NTD (number of embryos) (Mthfd1l^z/z embryos [1]; [8]): 0
- orofacial defect (number of embryos) (Mthfd1l^z/z embryos [1]; [8]): 8
- NTD, phenotype as a percentage (Mthfd1l^z/z embryos [1]; [9]): 0.07692 percentage
- no defect observed, phenotype as a percentage (Mthfd1l^z/z embryos [1]; [9]): 0.6154 percentage
- orofacial defect and NTD, phenotype as a percentage (Mthfd1l^z/z embryos [1]; [9]): 0 percentage
- orofacial defect, phenotype as a percentage (Mthfd1l^z/z embryos [1]; [9]): 0.3077 percentage
- no defect observed (number of embryos) (Mthfd1l^z/z embryos [1]; [10]): 8
- orofacial defect and NTD (number of embryos) (Mthfd1l^z/z embryos [1]; [10]): 0
- number with NTD (Mthfd1l^z/z embryos [1]; [11]): 1
- number with facial defect (Mthfd1l^z/z embryos [1]; [11]): 4
- NTD (number of embryos) (Mthfd1l^z/z embryos [1]; [12]): 1
- orofacial defect (number of embryos) (Mthfd1l^z/z embryos [1]; [12]): 4
- NTD, phenotype as a percentage (Mthfd1l^z/z embryos [1]; [13]): 0.3333 percentage
- no defect observed, phenotype as a percentage (Mthfd1l^z/z embryos [1]; [13]): 0.6667 percentage
- orofacial defect and NTD, phenotype as a percentage (Mthfd1l^z/z embryos [1]; [13]): 0 percentage
- orofacial defect, phenotype as a percentage (Mthfd1l^z/z embryos [1]; [13]): 0 percentage
- no defect observed (number of embryos) (Mthfd1l^z/z embryos [1]; [14]): 10
- orofacial defect and NTD (number of embryos) (Mthfd1l^z/z embryos [1]; [14]): 0
- number with NTD (Mthfd1l^z/z embryos [1]; [15]): 5
- number with facial defect (Mthfd1l^z/z embryos [1]; [15]): 0
- NTD (number of embryos) (Mthfd1l^z/z embryos [1]; [16]): 5
- orofacial defect (number of embryos) (Mthfd1l^z/z embryos [1]; [16]): 0
- NTD, phenotype as a percentage (Mthfd1l^z/z embryos [1]; [17]): 0.1 percentage
- no defect observed, phenotype as a percentage (Mthfd1l^z/z embryos [1]; [17]): 0.6 percentage
- orofacial defect and NTD, phenotype as a percentage (Mthfd1l^z/z embryos [1]; [17]): 0 percentage
- orofacial defect, phenotype as a percentage (Mthfd1l^z/z embryos [1]; [17]): 0.3 percentage
- no defect observed (number of embryos) (Mthfd1l^z/z embryos [1]; [18]): 6
- orofacial defect and NTD (number of embryos) (Mthfd1l^z/z embryos [1]; [18]): 0
- number with NTD (Mthfd1l^z/z embryos [1]; [19]): 1
- number with facial defect (Mthfd1l^z/z embryos [1]; [19]): 3
- NTD (number of embryos) (Mthfd1l^z/z embryos [1]; [20]): 1
- orofacial defect (number of embryos) (Mthfd1l^z/z embryos [1]; [20]): 3
- growth of Mthfd1l^z/z embryos with increasing maternal intake (Mthfd1l^z/z embryos [1]; 250-2500 mg/kg/day, embryos dissected at E15.5): dose-response effect
- Crown-rump length (Mthfd1l^z/z embryos [1]; Mthfd1l^+/+ embryos, 250 mg/kg calcium formate to dams): 1.39 + 0.1 cm
- Crown-rump length (Mthfd1l^z/z embryos [1]; Mthfd1l^+/+ embryos, 500 mg/kg calcium formate to dams): 1.32 + 0.17 cm
- Crown-rump length (Mthfd1l^z/z embryos [1]; Mthfd1l^+/+ embryos, 1500 mg/kg calcium formate to dams): 1.46 + 0.2 cm
- Crown-rump length (Mthfd1l^z/z embryos [1]; Mthfd1l^+/+ embryos, 2500 mg/kg calcium formate to dams): 1.43 + 0.07 cm
- Crown-rump length (Mthfd1l^z/z embryos [1]; Mthfd1l^+/+ embryos, 3500 mg/kg calcium formate to dams): 1.34 + 0.2 cm
- Crown-rump length (Mthfd1l^z/z embryos [1]; Mthfd1l^z/+ embryos, 250 mg/kg calcium formate to dams): 1.38 + 0.1 cm
- Crown-rump length (Mthfd1l^z/z embryos [1]; Mthfd1l^z/+ embryos, 500 mg/kg calcium formate to dams): 1.36 + 0.21 cm
- Crown-rump length (Mthfd1l^z/z embryos [1]; Mthfd1l^z/+ embryos, 1500 mg/kg calcium formate to dams): 1.46 + 0.1 cm
- Crown-rump length (Mthfd1l^z/z embryos [1]; Mthfd1l^z/+ embryos, 2500 mg/kg calcium formate to dams): 1.39 + 0.09 cm
- Crown-rump length (Mthfd1l^z/z embryos [1]; Mthfd1l^z/+ embryos, 3500 mg/kg calcium formate to dams): 1.33 + 0.1 cm
- Crown-rump length (Mthfd1l^z/z embryos [1]; Mthfd1l^z/z embryos, 250 mg/kg calcium formate to dams): 1.05 ± 0.1 cm
- Crown-rump length (Mthfd1l^z/z embryos [1]; Mthfd1l^z/z embryos, 500 mg/kg calcium formate to dams): 1.03 ± 0.06 cm
- Crown-rump length (Mthfd1l^z/z embryos [1]; Mthfd1l^z/z embryos, 1500 mg/kg calcium formate to dams): 1.17 ± 0.13 cm
- Crown-rump length (Mthfd1l^z/z embryos [1]; Mthfd1l^z/z embryos, 2500 mg/kg calcium formate to dams): 1.20 ± 0.04 cm
- Crown-rump length (Mthfd1l^z/z embryos [1]; Mthfd1l^z/z embryos, 3500 mg/kg calcium formate to dams): 1.1 ± 0.2 cm
- NTD and orofacial defect phenotypes (Mthfd1l^z/z embryos [1]; Table 3 and FIG. 6, mouse model): improves NTD and orofacial defect phenotypes in a dose-dependent manner

Structure (SMILES): O=C[O-].[Na+] [sodium formate]
- growth of embryos (words, FIG. 5) (Mthfd1l^z/z embryos [2]; 7500 mg sodium formate/kg/day, Mthfd1l^z/z embryos at E11.5 vs unsupplemented dams): improved growth
- number of Mthfd1l^z/z embryos with exencephaly (Mthfd1l^z/z embryos [2]; 7500 mg/kg/day sodium formate, of 14 Mthfd1l^z/z embryos): 3
- number of Mthfd1l^z/z embryos dissected at E13.5 or E15.5 (survival past E12.5) (Mthfd1l^z/z embryos [2]; 7500 mg/kg/day sodium formate, of 14 Mthfd1l^z/z embryos, none survive after E12.5 unsupplemented): 6
- number of Mthfd1l^z/z embryos with normal neural tube closure (Mthfd1l^z/z embryos [2]; 7500 mg/kg/day sodium formate, of 14 Mthfd1l^z/z embryos, p=0.028 vs unsupplemented nulls): 11
- number of Mthfd1l^+/+ embryos obtained (Mthfd1l^z/z embryos [2]; [21]): 4
- number of Mthfd1l^z/+ embryos obtained (Mthfd1l^z/z embryos [2]; [21]): 14
- number of Mthfd1l^z/z embryos obtained (Mthfd1l^z/z embryos [2]; dams 5000 mg/kg/day sodium formate in water, 3 litters, E15.5-18.5, distribution vs Mendelian p=0.50, 0 from unsupplemented dams): 8
- number of Mthfd1l^+/+ embryos obtained (Mthfd1l^z/z embryos [2]; [22]): 10
- number of Mthfd1l^z/+ embryos obtained (Mthfd1l^z/z embryos [2]; [22]): 31
- number of Mthfd1l^z/z embryos obtained (Mthfd1l^z/z embryos [2]; [22]): 14
- growth defect (Mthfd1l^z/z embryos [2]; [23]): partially rescue the growth defect
- incidence of NTDs (Mthfd1l^z/z embryos [2]; [23]): decrease the incidence of NTDs
- Crown-rump length (Mthfd1l^z/z embryos [2]; formate supplemented Mthfd1l^z/z E11.5 embryos, p<0.01 vs unsupplemented (3.6±0.3)): 5.0±0.1 mm
- Crown-rump length (Mthfd1l^z/z embryos [2]; wild-type embryos, supplementation had no significant effect): 5.9±0.2 mm

Structure (SMILES): Nc1nc(=O)c2c([nH]1)NCC(CNc1ccc(C(=O)N[C@@H](CCC(=O)O)C(=O)O)cc1)N2C=O (mixture of isomers) [5-formyl-THF]
- rescue of Folr1 knockout embryonic folate deficiency (Folr1^−/− embryos): can be rescued
